SMILES strings stand for the structures.

The values below come from patent EP0823908B1, “PYRIDO[2,3-d]PYRIMIDINES FOR INHIBITING PROTEIN TYROSINE KINASE MEDIATED [sequence] PROLIFERATION” (Warner-Lambert Company LLC, priority 1995, dated 1996).

Experiment [1] concerns the target T1, mouse PDGF-β receptor tyrosine kinase (Mus musculus, UniProt P05622).
T1 construct: amplify a fragment of DNA that codes for the intracellular tyrosine kinase domain; made in house; host or cells: SF9 insect cells (baculovirus)
The experiment in a line: PDGF receptor tyrosine kinase assay (32P incorporation into glutamate-tyrosine co-polymer). Particulars: read-out: PDGFr-TK IC50. Format: biochemical. Put shortly:
(§1)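 32P transfer from γ32P-ATP (50 µM ATP) to poly(Glu,Tyr) 4:1 was measured over 10 min at 25°C and counted after TCA precipitation onto filters, minus the no-enzyme background. Enzyme was baculovirus/SF9 lysate of the kinase domain, preincubated 10 min with inhibitor in Hepes pH 7.0, MnCl2, vanadate.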

For experiment [2], the target named is T2, human FGF-1 (flg) receptor tyrosine kinase (Homo sapiens, UniProt P11362).
T2 construct: amplify a fragment of DNA that codes for the intracellular tyrosine kinase domain; made in house; host or cells: SF9 insect cells (baculovirus)
The experiment in a line: FGF receptor tyrosine kinase assay (32P incorporation into glutamate-tyrosine co-polymer). Format: biochemical. Particulars: read-out: FGFr-TK IC50. In a few lines:
as §1

A further experiment concerns SW-620. As to the kind of experiment: Soft agar colony formation, human colon adenocarcinoma cells. The experiment is classed as cell-based. Particulars: SW-620, 336 h, colony formation in 0.3% soft agar, generally 2 weeks, read-out: Inhibition of Human Colon Adenocarcinoma IC50, SW-620. How it is done:
(§2) Three such human cell lines were identified as HCT-8, SW-620, and HT-29. In a typical assay, the cells are suspended in 0.3% soft agar containing an invention compound at various concentration levels, and are plated into six-well plates, each plate containing a 1% agar plug. The cell plates are incubated at 37°C in a humidified carbon dioxide (5%) incubator, generally for 2 weeks. At the end of the incubation period, colonies of cells are detected by staining the wells with 1 mg/mL of p-iodonitrotetrazolium violet. The cells are counted on an optical colony counter. […] TABLE III. Inhibition of Human Colon Adenocarcinoma IC50 (µM)

In another experiment the test system is HCT-8. Described as above. The experiment is classed as cell-based. Particulars: HCT-8, 336 h, colony formation in 0.3% soft agar, generally 2 weeks, read-out: Inhibition of Human Colon Adenocarcinoma IC50, HCT-8. How it is done:
as §2

The next experiment concerns HT-29. The experiment is described as above. The experiment is classed as cell-based. Particulars: HT-29, 336 h, colony formation in 0.3% soft agar, generally 2 weeks, read-out: Inhibition of Human Colon Adenocarcinoma IC50, HT-29. As for the experimental part:
as §2

For a further experiment, the system named is PDGF receptor. The experiment in a line: PDGF receptor autophosphorylation in rat aorta smooth muscle cells. Particulars: PDGF-BB 30 ng/mL for 5 minutes after 2 hours with compound; read-out: Inhibition of PDGF-Stimulated Receptor Auto Phosphorylation in Rat Aortic Smooth Muscle Cells (IC50). Format: cell-based. As for the experimental part: Rat aorta smooth muscle cells (RASMC) were isolated from the thoracic aorta of rats and explanted according to the method of Ross, J. Cell. Biol., 30:172-186 (1971). Cells were grown in Dulbecco's modified Eagle's medium (DMEM, Gibco) containing 10% fetal calf serum (FBS, Hyclone, Logan, Utah), 1% glutamine (Gibco) and 1% penicillin/streptomycin (Gibco). Cells were identified as smooth muscle cells by their "hill and valley" growth pattern and by fluorescent staining with a monoclonal antibody specific for SMC ∝-actin (Sigma). RASMC were used between passages 5 and 20 for all experiments. Test compounds were prepared in dimethylsulfoxide (DMSO) in order to achieve consistency in the vehicle and to ensure compound solubility. Appropriate DMSO controls were simultaneously evaluated with the test compounds.
RASMC were grown to confluency in 100 mm dishes. Growth medium was removed and replaced with serum-free medium and cells were incubated at 37°C for an additional 24 hours. Test compounds were then added directly to the medium and cells incubated for an additional 2 hours. After 2 hours, PDGF-BB was added at a final concentration of 30 ng/mL for 5 minutes at 37°C to stimulated autophosphorylation of the PDGF receptor. Following growth factor treatment, the medium was removed, and cells were washed with cold phosphate-buffered saline and immediately lysed with 1 mL of lysis buffer (50 mM HEPES[pH 7.5], 150 mM NaCl, 10% glycerol, 1% Triton X-100, 1 mM EDTA, 1 mMEGTA, 50 mM NaF, 1 mM sodium orthovanadate, 30 mM p-nitrophenyl phosphate, 10 mM sodium pyrophosphate, 1 mM phenylmethyl sulfonyl fluoride, 10 µg/mL aprotinin, and 10 µg/mL leupeptin). Lysates were centrifuged at 10,000 × g for 10 minutes. […] Following the incubation, protein-A-sepharose beads were added for 2 hours with continuous mixing, and immune complexes bound to the beads washed four times with 1 mL lysis wash buffer. Immune complexes were solubilized in 30 µL of Laemmli sample buffer and electrophoresed in 4-20% SDS polyacrylamide gels. Following electrophoresis, separated proteins were transferred to nitrocellulose and immunoblotted with anti-phosphotyrosine antiserum. […] IC50 values were generated from the densitometric data.

In another experiment the target is T3, C-src kinase (Homo sapiens, UniProt P12931).
T3 construct: made in house; host or cells: baculovirus infected insect cells
As to the kind of experiment: C-src kinase assay (poly GluTyr substrate). The experiment is classed as biochemical. Particulars: read-out: C-src TK IC50.

Experiment [3] concerns the target T4, Human EGF receptor tyrosine kinase (Homo sapiens, UniProt P00533).
T4 construct: Human EGF receptor tyrosine kinase was isolated from A431 epidermoid carcinoma cells; endogenous in cells; host or cells: A431 epidermoid carcinoma cells
As to the kind of experiment: EGF receptor tyrosine kinase enzyme assay (substrate peptide phosphorylation). The experiment is classed as biochemical. Particulars: read-out: EGF-FL IC50.

For the next experiment, the system named is transplanted tumors. As to the kind of experiment: Transplanted tumor assay. Format: in vivo. Particulars: F1 hybrid mice; compound generally by infusion by tail tether. How it is done:
F1 hybrid mice were used in the assay. The mice receive ascites fluid or dilutions of tumor brei on Day 0. A sample of the inocula is incubated in thioglycolate media as a check for gross contamination of the tumor material. After all test animals are inoculated with tumors, they are randomized for the assay. Control animals receive vehicle, while treated animals receive an invention compound dissolved in the vehicle, generally by infusion by tail tether. All animals are monitored daily for acute toxicity and other clinical signs. Survival is checked daily for the control group and treated group. The assay generally is continued for 60 days, at which time all surviving animals are euthanized.

T3 sequence (P12931 whole entry): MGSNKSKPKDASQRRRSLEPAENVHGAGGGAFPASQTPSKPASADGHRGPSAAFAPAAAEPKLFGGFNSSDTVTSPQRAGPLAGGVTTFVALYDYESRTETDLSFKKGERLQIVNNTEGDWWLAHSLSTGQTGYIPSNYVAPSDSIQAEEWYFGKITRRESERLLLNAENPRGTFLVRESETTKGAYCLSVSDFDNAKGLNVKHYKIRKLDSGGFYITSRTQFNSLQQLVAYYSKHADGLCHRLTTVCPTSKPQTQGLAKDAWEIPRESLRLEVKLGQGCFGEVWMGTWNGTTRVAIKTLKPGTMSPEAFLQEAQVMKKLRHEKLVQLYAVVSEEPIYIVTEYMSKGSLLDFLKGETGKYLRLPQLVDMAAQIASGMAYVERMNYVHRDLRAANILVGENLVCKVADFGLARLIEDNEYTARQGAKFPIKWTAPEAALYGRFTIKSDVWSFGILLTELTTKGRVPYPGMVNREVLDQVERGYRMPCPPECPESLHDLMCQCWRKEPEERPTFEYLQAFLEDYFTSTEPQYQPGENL
T4 sequence (P00533 25-1210): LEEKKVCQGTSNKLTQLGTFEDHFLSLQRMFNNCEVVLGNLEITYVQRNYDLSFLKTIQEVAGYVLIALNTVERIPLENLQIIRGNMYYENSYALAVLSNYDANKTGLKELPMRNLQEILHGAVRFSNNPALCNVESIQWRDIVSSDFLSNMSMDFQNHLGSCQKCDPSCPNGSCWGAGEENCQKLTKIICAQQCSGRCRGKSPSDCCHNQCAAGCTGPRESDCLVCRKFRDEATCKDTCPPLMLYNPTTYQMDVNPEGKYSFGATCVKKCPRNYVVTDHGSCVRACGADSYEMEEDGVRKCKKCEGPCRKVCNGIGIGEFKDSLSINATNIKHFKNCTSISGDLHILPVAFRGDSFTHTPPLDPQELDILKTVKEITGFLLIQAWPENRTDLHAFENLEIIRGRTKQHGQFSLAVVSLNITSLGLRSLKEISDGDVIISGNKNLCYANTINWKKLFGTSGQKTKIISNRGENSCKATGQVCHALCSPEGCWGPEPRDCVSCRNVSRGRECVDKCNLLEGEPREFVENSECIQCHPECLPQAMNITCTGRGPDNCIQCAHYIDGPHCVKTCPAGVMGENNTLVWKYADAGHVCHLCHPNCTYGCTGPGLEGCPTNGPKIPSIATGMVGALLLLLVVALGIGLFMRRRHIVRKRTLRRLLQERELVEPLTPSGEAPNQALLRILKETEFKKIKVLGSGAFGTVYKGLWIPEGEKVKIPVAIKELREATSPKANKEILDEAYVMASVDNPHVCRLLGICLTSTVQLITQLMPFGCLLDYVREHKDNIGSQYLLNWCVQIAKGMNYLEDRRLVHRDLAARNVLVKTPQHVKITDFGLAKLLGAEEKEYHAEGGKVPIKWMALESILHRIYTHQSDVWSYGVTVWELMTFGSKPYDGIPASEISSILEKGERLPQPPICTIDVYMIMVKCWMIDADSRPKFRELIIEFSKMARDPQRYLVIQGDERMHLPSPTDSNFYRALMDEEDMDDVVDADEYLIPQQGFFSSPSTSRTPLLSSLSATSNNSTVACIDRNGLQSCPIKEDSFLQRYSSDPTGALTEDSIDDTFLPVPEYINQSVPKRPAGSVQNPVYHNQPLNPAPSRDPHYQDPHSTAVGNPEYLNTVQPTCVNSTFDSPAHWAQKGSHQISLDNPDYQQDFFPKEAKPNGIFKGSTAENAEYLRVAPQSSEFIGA
T2 sequence (P11362 478-767 limits assumed): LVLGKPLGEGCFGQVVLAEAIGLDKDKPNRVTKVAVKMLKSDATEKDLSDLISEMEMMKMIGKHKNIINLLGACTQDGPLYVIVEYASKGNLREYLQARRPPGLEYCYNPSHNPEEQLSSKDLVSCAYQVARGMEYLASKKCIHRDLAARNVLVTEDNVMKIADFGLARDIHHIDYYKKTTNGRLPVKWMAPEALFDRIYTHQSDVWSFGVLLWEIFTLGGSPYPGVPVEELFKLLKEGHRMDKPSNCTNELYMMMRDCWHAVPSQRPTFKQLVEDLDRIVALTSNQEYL
T1 sequence (P05622 599-961 limits assumed): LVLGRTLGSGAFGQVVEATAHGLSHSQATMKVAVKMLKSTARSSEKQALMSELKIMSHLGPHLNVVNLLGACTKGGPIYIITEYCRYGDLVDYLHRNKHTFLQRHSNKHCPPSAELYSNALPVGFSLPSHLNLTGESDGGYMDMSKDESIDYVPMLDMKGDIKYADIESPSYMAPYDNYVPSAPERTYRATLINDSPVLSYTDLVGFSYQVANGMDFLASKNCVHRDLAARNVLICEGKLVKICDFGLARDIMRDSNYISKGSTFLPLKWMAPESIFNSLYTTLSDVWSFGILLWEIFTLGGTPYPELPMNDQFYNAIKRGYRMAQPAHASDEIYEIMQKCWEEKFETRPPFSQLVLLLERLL

As usually defined, the IC50 is the concentration that gives 50% inhibition. Regarding `Cn1c(=O)c(-c2c(Cl)cccc2Cl)cc2cnc(Nc3cccc(Br)c3)nc21` [Example 55, 2-(3-Bromophenylamino)-6-(2,6-dichlorophenyl)-8-methyl-8H-pyrido[2,3-d]pyrimidin-7-one], the IC50 in experiment [1] came to 1800 nM; in [2], 2200 nM; in the experiment with SW-620, 120 nM; with HCT-8, 110 nM; with HT-29, 430 nM; with PDGF receptor, 60 nM. In addition, the half-maximal inhibitory concentration (IC50) at C-src kinase was found to be 59 nM.
`Cn1c(=O)c(-c2c(Cl)cccc2Cl)cc2cnc(N)nc21` [Example 12, 2-Amino-6-(2,6-dichlorophenyl)-8-methyl-pyrido[2,3-d]-pyrimidin-7(8H)-one]: the IC50 in the experiment with PDGF receptor is 9400 nM; in experiment [3], 5600 nM.
Turning to `Cn1c(=O)c(-c2c(Cl)cccc2Cl)cc2cnc(Nc3ccncc3)nc21` [Example 58, 6-(2,6-Dichlorophenyl)-8-methyl-2-(pyridin-4-ylamino)-8H-pyrido[2,3-d]pyrimidin-7-one], the 50% inhibitory concentration (IC50) in experiment [1] came to 71 nM; in [2], 159 nM; in the experiment with SW-620 it was 130 nM; in the experiment on HCT-8, 170 nM; in the experiment on HT-29, 380 nM; in the experiment on PDGF receptor it was 13 nM. Also, the half-maximal inhibitory concentration (IC50) was determined as 23 nM at C-src kinase and 119 nM in experiment [3].
For the compound `CCN(CC)CCOc1ccc(Nc2ncc3cc(-c4c(Cl)cccc4Cl)c(=O)n(C)c3n2)cc1` [Example 80, 6-(2,6-Dichlorophenyl)-2-[4-(2-diethylaminoethoxy)-phenylamino]-8-methyl-8H-pyrido[2,3-d]pyrimidin-7-one], in the experiment on transplanted tumors, the “life span of animals infected with transplanted tumors” value is recorded as “increased the life span”.
